Experimental data reported in patent publication US20150320748A1, “AGENT FOR INHIBITING EXPRESSION OF LIPID METABOLISM RELATED MRNA” (KOWA CO., LTD., priority 2011, published 2015).

What was measured:
SCD-1 mRNA = assay: Expression level of SCD-1 mRNA in HepG2 cells by real-time quantitative RT-PCR; type: cell-based, human; conditions: 0.1, 1, 10 mM DMSO solutions added at 1 to 1000, corrected by β-Actin mRNA, FIG. 3
Procedure: More specifically, the HepG2 cells were seeded on a 24-well plate at a concentration of 2×10^5 cells/well, and cultured overnight. […] The mixture was cultured for 8 hours in a CO2 incubator at 37° C., and then 500 μL of ISOGEN (Nippon Gene Co., Ltd., catalogue No. 31-02501) was added, and the total RNA was extracted. From the extracted total RNA, cDNA was synthesized using High Capacity cDNA Reverse Transcription kit (Applied Biosystems, catalogue No. 4368813). The expression level of human SCD-1 was measured using a primer 5′-[sequence]-3′ (SEQ ID NO. 6), an antisense primer 5′-[sequence]-3′ (SEQ ID NO. 7), which are specific to human SCD-1, and Fast SYBR Green master mix (Applied Biosystems, catalogue No. 4385614). The measurement instrument was 7900HT Fast Realtime PCR system.
The measurement value was corrected by the expression level of β-Actin mRNA.

SREBP1c mRNA = assay: Expression level of SREBP1c mRNA in HepG2 cells by real-time quantitative RT-PCR; type: cell-based, human; conditions: 0.1, 1, 10 mM DMSO solutions added at 1 to 1000, corrected by β-Actin mRNA, FIG. 2
Procedure: The test compound 2 was added to the HepG2 cells of human liver cancer cell line, cultured for 24 hours, and then the expression level of SREBP1c mRNA was measured by real-time quantitative RT-PCR. More specifically, the HepG2 cells were seeded on a 24-well plate at a concentration of 2×10^5 cells/well, and cultured overnight. The test compound 2 was dissolved in dimethyl sulf oxide (DMSO) at concentrations of 0.1 mM, 1 mM, and 10 mM, and added to the culture solution at the rate of 1 to 1000. The mixture was cultured for 8 hours in a CO2 incubator at 37° C., and then 500 μL of ISOGEN (Nippon Gene Co., Ltd., catalogue No. 31-02501) was added, and the total RNA was extracted. […] The expression level of human SREBP1c mRNA was measured using a TaqMan probe 5′-[sequence]-3′ (SEQ ID NO. 3), a sense primer: 5′-[sequence]-3′ (SEQ ID NO. 4), and an antisense primer 5′-[sequence]-3′ (SEQ ID NO. 5), which are specific to human SREBP1c, and TaqMan Fast Universal PCR Master Mix (Applied Biosystems, catalogue No. 4367846). […]
The measurement value was corrected by the expression level of β-Actin mRNA. The expression level of SREBP1c mRNA in the cells mixed with DMSO alone was set at 1, and the expression level of SREBP1c mRNA in the cells mixed with the test compound 2 was calculated as relative value.

[1] = biological target: T1, cholesterol ester transfer protein (CETP) (Homo sapiens, UniProt P11597); assay: CETP inhibitory effect; type: biochemical; conditions: no method or values printed
T1 sequence (P11597 18-493): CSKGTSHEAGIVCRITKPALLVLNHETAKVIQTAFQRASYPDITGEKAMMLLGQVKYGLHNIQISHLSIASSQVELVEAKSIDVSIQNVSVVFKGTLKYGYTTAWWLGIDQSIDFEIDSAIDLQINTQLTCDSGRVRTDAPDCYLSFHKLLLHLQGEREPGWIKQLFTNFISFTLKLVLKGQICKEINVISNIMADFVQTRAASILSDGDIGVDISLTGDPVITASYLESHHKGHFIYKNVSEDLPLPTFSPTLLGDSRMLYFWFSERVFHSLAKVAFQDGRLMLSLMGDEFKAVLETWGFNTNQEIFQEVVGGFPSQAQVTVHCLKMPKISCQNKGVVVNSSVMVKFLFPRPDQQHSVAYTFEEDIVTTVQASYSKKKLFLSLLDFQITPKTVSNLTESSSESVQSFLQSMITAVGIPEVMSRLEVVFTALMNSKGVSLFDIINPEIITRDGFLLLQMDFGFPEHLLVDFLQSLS

Compound	decrease of the expression level of SCD-1 mRNA (relative value, DMSO alone = 1) (SCD-1 mRNA)	decrease of the expression level of SREBP1c mRNA (relative value, DMSO alone = 1) (SREBP1c mRNA)	CETP inhibitory effect (test compound 2 compared with Anacetrapib) [1]
CCN(C[C@H]1CC[C@H](CC(=O)O)CC1)c1ccc(C(F)(F)F)cc1CN(c1ncc(OCCS(C)(=O)=O)cn1)[C@@H](C)c1cc(C(F)(F)F)cc(C(F)(F)F)c1 [compound 2]	evidently stronger than that of Anacetrapib	evidently stronger than that of Anacetrapib	equal
COc1cc(F)c(C(C)C)cc1-c1ccc(C(F)(F)F)cc1CN1C(=O)O[C@H](c2cc(C(F)(F)F)cc(C(F)(F)F)c2)[C@@H]1C [Anacetrapib, (4S,5R) -5-[3,5-bis(trifluoromethyl)phenyl]-3-({2-[4-fluoro-2-methoxy-5-(propane-2-yl)phenyl]-5-(trifluoromethyl)phenyl}methyl)-4-methyl-1,3-oxazolidine-2-one, reference compound]			equal
